Here are results for two compounds from article PMC9329268 (Angewandte Chemie (International ed. in English), 2022).

Values after ≈ are worked out from the molar mass of the structure shown. A value given as a limit tells only on which side of the number the result lay.

One data set can be described thus: Water-solubility. The data set is classed as physicochemical.
Data set [1] concerns healthy (normal) and cancer cell lines. To be noted: read-out: IC50 (rapid cytotoxic activity); within 24 h; ref 4a; cited from earlier work.
Another data set concerns MraY. Particulars: read-out: IC50 MraY.
The target of data set [2] is T1, human dolichyl-phosphate N-acetylglucosaminephosphotransferase 1 (DPAGT1) (Homo sapiens, UniProt Q9H3H5).
T1 sequence (Q9H3H5 1-408): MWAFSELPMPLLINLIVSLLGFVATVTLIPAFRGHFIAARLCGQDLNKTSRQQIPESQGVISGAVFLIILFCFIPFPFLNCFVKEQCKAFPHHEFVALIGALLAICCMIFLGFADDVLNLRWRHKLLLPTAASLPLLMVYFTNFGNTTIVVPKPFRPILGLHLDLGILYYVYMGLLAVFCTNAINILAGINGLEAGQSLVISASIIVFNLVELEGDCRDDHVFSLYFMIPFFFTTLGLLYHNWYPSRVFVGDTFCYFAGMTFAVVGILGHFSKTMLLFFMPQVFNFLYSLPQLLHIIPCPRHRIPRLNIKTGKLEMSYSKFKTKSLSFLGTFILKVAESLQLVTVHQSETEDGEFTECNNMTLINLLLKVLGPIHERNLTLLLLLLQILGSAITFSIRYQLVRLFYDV
Type of data set: biochemical. Particulars: read-out: IC50 DPAGT1; Human enzyme; n = 3.

For data set [3], the system named is Streptococcus salivarius (ATCC7752). Kind of data set: Antibacterial activity. The data set is classed as cell-based.
For data set [4], the system named is Bacillus cereus (ATCC1479). Kind of data set: Antibacterial activity. Type of data set: cell-based.
For data set [5], the system named is Mycobacterium smegmatis (ATCC607). Kind of data set: Antibacterial activity. The data set is classed as cell-based.
The test system of data set [6] is Mycobacterium tuberculosis (H37Rv). Kind of data set: Antibacterial activity. The data set is classed as cell-based.
A further data set has as its target T2, AglH (Methanocaldococcus jannaschii, UniProt Q58513).
T2 sequence (Q58513 1-301): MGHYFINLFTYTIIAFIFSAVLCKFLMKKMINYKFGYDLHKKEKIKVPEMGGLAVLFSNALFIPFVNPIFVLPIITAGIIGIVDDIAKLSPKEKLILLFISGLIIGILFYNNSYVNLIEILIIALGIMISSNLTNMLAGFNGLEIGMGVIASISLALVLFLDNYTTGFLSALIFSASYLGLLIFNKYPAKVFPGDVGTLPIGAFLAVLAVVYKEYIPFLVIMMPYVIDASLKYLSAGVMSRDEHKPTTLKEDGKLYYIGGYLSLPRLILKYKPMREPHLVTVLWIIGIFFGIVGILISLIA
The data set is classed as biochemical. To be noted: read-out: IC50 AglH; Methanococcus jannaschii enzyme; n = 3.

Turning to `CC(=O)N[C@H]1[C@@H](O[C@@H]2O[C@H](C[C@@H](O)[C@H]3O[C@@H](n4ccc(=O)[nH]c4=O)[C@H](O)[C@@H]3O)[C@H](O)[C@H](O)[C@H]2NC(=O)/C=C/CCCCCCCCCC(C)C)O[C@H](CO)[C@@H](O)[C@@H]1O` [TN-V (1, synthetic), tunicamycin V], the solubility in “Water-solubility” was < 200 µg/mL. Besides, the half-maximal inhibitory concentration (IC50) in data set [1] is 500 to 2500 nM; in the data set on MraY it was 2500 nM; in data set [2] it was 1500 nM; on AglH it was 13000 nM. In addition, the MIC is 25.0 µg/mL (≈ 30.1 µM) in data set [3], 0.4 µg/mL (≈ 0.481 µM) in data set [4], 6.3 µg/mL (≈ 7.58 µM) in data set [5] and 6.3 µg/mL (≈ 7.58 µM) in [6].

For `CC(=O)N[C@H]1[C@@H](O[C@@H]2O[C@H](C[C@@H](O)[C@H]3O[C@@H](n4ccc(=O)[nH]c4=O)[C@H](O)[C@@H]3O)[C@H](O)[C@H](O)[C@H]2NC(=O)/C=C/CCCCCCCCCC(C)C)O[C@H](CO)[C@@H](O)[C@@H]1O` [TN-V (natural), tunicamycin V, reference compound], the half-maximal inhibitory concentration (IC50) with MraY stood at 2900 nM; in [2], 1500 nM; at AglH, 13200 nM.
